Laboratory results: the supplement of paper PMC10307832

Experiments:
Assay in all cases: relative viability (nuclei count vs DMSO), 5 days (fraction); higher = more cells survive
Mirin + AZD7762 = compound: N=C1NC(=O)/C(=C/c2ccc(O)cc2)S1 [Mirin] + NC(=O)Nc1cc(-c2cccc(F)c2)sc1C(=O)N[C@H]1CCCNC1 [AZD7762] (partner 0.2 µM)
Method in brief: (§1)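 Relative viability divides the nuclei count in treated wells by that in vehicle wells. Lung cancer cell lines were seeded in 1536-well plates, dosed by pin tool the next day, and fixed and stained after 5 days in one step with final 0.05% Triton X-100, 1% formaldehyde and 1 ug/ml Hoechst. Dosing was a single drug or a fixed anchor-drug dose plus five library-drug doses (not always all listed) in √10 steps, and values are medians of duplicate plates imaged at 4×.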

Mirin + Trametinib = compound: N=C1NC(=O)/C(=C/c2ccc(O)cc2)S1 [Mirin] + CC(=O)Nc1cccc(-n2c(=O)n(C3CC3)c(=O)c3c(Nc4ccc(I)cc4F)n(C)c(=O)c(C)c32)c1 [Trametinib] (partner 0.02 µM)
Method in brief: as §1

[1] = compound: CCC1=CN=CN=C1N2CCN(CC2)CC3=NC4=C(N3)C=C(C=C4)C(F)(F)F + CS(=O)(=O)N1CCN(Cc2cc3nc(-c4cccc5[nH]ncc45)nc(N4CCOCC4)c3s2)CC1 [Pictilisib] (partner 1 µM)
Method in brief: as §1

Mirin + Palbociclib = compound: N=C1NC(=O)/C(=C/c2ccc(O)cc2)S1 [Mirin] + CC(=O)c1c(C)c2cnc(Nc3ccc(N4CCNCC4)cn3)nc2n(C2CCCC2)c1=O [Palbociclib] (partner 0.5 µM)
Method in brief: as §1

Row | Cell Line | relative viability (Mirin + AZD7762; first compound 0.25 µM) | relative viability (Mirin + AZD7762; first compound 0.7906 µM) | relative viability (Mirin + AZD7762; first compound 2.5 µM) | relative viability (Mirin + AZD7762; first compound 7.906 µM) | relative viability (Mirin + AZD7762; first compound 25 µM) | relative viability (Mirin + Trametinib; first compound 0.25 µM) | relative viability (Mirin + Trametinib; first compound 0.7906 µM) | relative viability (Mirin + Trametinib; first compound 2.5 µM) | relative viability (Mirin + Trametinib; first compound 7.906 µM) | relative viability (Mirin + Trametinib; first compound 25 µM) | relative viability ([1]; first compound 0.04 µM) | relative viability ([1]; first compound 0.1265 µM) | relative viability ([1]; first compound 0.4 µM) | relative viability ([1]; first compound 1.265 µM) | relative viability ([1]; first compound 4 µM) | relative viability (Mirin + Palbociclib; first compound 0.25 µM) | relative viability (Mirin + Palbociclib; first compound 0.7906 µM) | relative viability (Mirin + Palbociclib; first compound 2.5 µM) | relative viability (Mirin + Palbociclib; first compound 7.906 µM) | relative viability (Mirin + Palbociclib; first compound 25 µM)
1 | 201T | 0.581 | 0.754 | 0.673 | 0.441 | 0.552 | 0.739 | 0.74 | 0.77 | 0.796 | 0.857 | 0.708 | 0.652 | 0.658 | 0.514 | 0.801 | 0.365 | 0.413 | 0.353 | 0.348 | 0.395
2 | A549 | – | – | – | – | – | – | – | – | – | – | 0.547 | 0.488 | 0.467 | 0.507 | 0.426 | – | – | – | – | –
3 | A-427 | 0.772 | 0.879 | 0.701 | 0.737 | 0.636 | 0.734 | 0.647 | 0.718 | 0.677 | 0.706 | 0.675 | 0.685 | 0.682 | 0.637 | 0.574 | 0.494 | 0.5 | 0.552 | 0.516 | 0.504
4 | ABC-1 | 0.603 | 0.929 | 0.628 | 0.847 | 0.683 | – | – | – | – | – | 0.587 | 0.955 | 0.69 | 0.665 | 0.646 | 0.548 | 0.693 | 0.573 | 0.728 | 0.482
5 | BEN | 0.711 | 0.711 | 0.735 | 0.574 | 0.494 | 0.942 | 1.01 | 1.16 | 0.825 | 0.591 | 0.593 | 0.557 | 0.503 | 0.343 | 0.331 | 0.485 | 0.468 | 0.423 | 0.424 | 0.426
6 | CAL-12T | 0.681 | 0.858 | 0.633 | 0.717 | 0.831 | 0.336 | 0.373 | 0.405 | 0.357 | 0.32 | – | 0.541 | 0.295 | 0.314 | 0.361 | 0.265 | 0.193 | 0.508 | 0.408 | 0.339
7 | COR-L23 | – | – | – | – | – | 0.559 | 0.522 | 0.56 | 0.345 | 0.652 | 0.696 | 0.71 | 0.676 | 0.632 | 0.769 | 0.369 | 0.299 | 0.245 | 0.268 | 0.341
8 | COR-L 105 | – | – | – | – | – | 0.428 | 0.482 | 0.431 | 0.449 | 0.451 | 0.372 | 0.376 | 0.385 | 0.247 | 0.464 | 0.426 | 0.415 | 0.376 | 0.432 | 0.42
9 | Calu-6 | – | – | – | – | – | – | – | – | – | – | 1.07 | 0.877 | 0.865 | 0.822 | 0.73 | – | – | – | – | –
10 | ChaGo-K-1 | 0.832 | 0.825 | 0.868 | 0.835 | 0.755 | 0.833 | 0.836 | 0.94 | 0.756 | 0.677 | – | 0.707 | 0.63 | 0.668 | 0.557 | 0.915 | 0.961 | 0.973 | 0.919 | 0.68
11 | EBC-1 | – | – | – | – | – | – | – | – | – | – | 0.459 | 0.318 | 0.333 | 0.261 | 0.352 | – | – | – | – | –
12 | EKVX | 0.631 | 0.709 | 0.771 | 0.727 | 0.689 | 0.373 | 0.246 | 0.382 | 0.35 | 0.376 | 0.395 | 0.388 | 0.373 | 0.307 | 0.444 | 0.367 | 0.376 | 0.302 | 0.365 | 0.412
13 | EMC-BAC-2 | 0.977 | 1.1 | 1.26 | 0.92 | 1.05 | 0.934 | 0.889 | 0.875 | 0.761 | 0.957 | 0.571 | 0.491 | 0.479 | 0.349 | 0.608 | 0.485 | 0.515 | 0.52 | 0.4 | 0.502
14 | EPLC-272H | 0.239 | – | 0.23 | 0.227 | 0.161 | 0.308 | – | 0.281 | 0.3 | 0.317 | 0.305 | 0.285 | 0.287 | 0.302 | 0.284 | 0.283 | – | 0.339 | 0.345 | 0.353
15 | H3255 | 0.899 | 0.958 | 0.943 | 0.738 | 0.867 | 0.604 | 0.752 | 0.557 | 0.412 | 0.566 | 0.5 | 0.507 | 0.446 | 0.423 | 0.455 | 0.308 | 0.309 | 0.298 | 0.323 | 0.328
16 | HARA | 0.257 | – | 0.47 | 0.423 | 0.353 | 0.886 | – | 0.795 | 0.674 | 0.523 | 0.311 | 0.326 | 0.321 | 0.302 | 0.471 | 0.273 | 0.277 | 0.265 | 0.293 | 0.268
17 | HCC-15 | 0.589 | 0.973 | 1.33 | 1.28 | 1.18 | 0.341 | 0.368 | 0.363 | 0.368 | 0.365 | 0.667 | 0.676 | 0.677 | 0.532 | 0.805 | 0.739 | 0.712 | 0.677 | 0.674 | 0.737
18 | HCC-44 | 1.05 | 1.22 | 1.04 | 1.03 | 1.11 | 0.981 | 1.36 | 1.08 | 1.06 | 1.09 | 0.584 | 0.593 | 0.557 | 0.477 | 0.596 | 1 | 1.1 | 0.91 | 0.975 | 1.15
19 | HCC-78 | 0.583 | 0.863 | 0.671 | 0.658 | 0.68 | 0.647 | 0.715 | 0.885 | 0.709 | 0.72 | 0.143 | 0.299 | 0.203 | 0.206 | 0.178 | 0.536 | 0.41 | 0.453 | 0.505 | 0.381
